Results reported in patent US5561131A, “Defaunation method” (Mallinckrodt Veterinary, Inc., priority 1991, dated 1996).

Tests used:
[1] = Effect of defaunation compounds on feed intake of sheep; assay type: in vivo; conditions: after dosing vs pre-dosing intake
Description: Sheep were allowed a minimum of three weeks to adapt to their ration of 900 g of oaten chaff and 100 g of Lucerne chaff. The pre-dosing level of intake for each animal was established from the mean of five days intake immediately prior to dosing. Any effects of administering the compound on feed intake was then determined by measuring the level of feed intake after dosing.
The criteria of classifying the effect on food intake are shown below.
Poor--greater than 50% reduction in feed intake during the first week after dosing.
Fair--greater than 50% reduction in feed intake on the day following dosing but less then 50% reduction one week after dosing.
OK--transient drop in feed intake which is less than 50% on the day after dosing.
Good--No reduction in feed intake following dosing.

rumen bacteria [2] = experiment: In vitro bacterial gas inhibition; assay type: cell-based; conditions: at the concentration known to kill protozoa
Description: Compounds of Table 1 were also tested for toxicity bacteria. This involved removing protozoa from rumen liquor by centrifugation at 2,000 g for 5 minutes and collecting the bacterial rich supernatant. Nitrogen and energy substrate was added to the bacterial preparation which was then dispensed in triplicate 10 ml volumes over the same range of compound concentrations (50, 150, 250 and 500 ppm.) referred to in Example 2. Control tubes were placed after every second compound to enable the inhibition of gas resulting from the compound to be assessed. […] It can be seen that these compounds are selective in their mode of action, in that they are more toxic to protozoa than bacteria.

rumen ciliate protozoa [3] = experiment: Protozoal reduction in sheep; assay type: in vivo; set-up: concentration or dose not given beside the values; conditions: one week after dosing, relative to predosing numbers
Description: Defaunation compositions were prepared according to the method of Example 1.
Prior to dosing of the compound, a sample of rumen liquor (200 ml) was withdrawn to establish basal numbers of protozoa.
The sample was collected using a stomach tube, inserted into the rumen via a rumen cannula (fistulated animals) or per esophagus (intact animals). After straining the sample was well mixed using a magnetic stirrer and a 0.5 ml sample was withdrawn and added to 49.5 ml of a crystal violet stain. Protozoa were counted using a microscope and a Hawksley counting chamber.
One week after administering the compound, another rumen liquor sample was collected (as described above) and examined for the presence of protozoa. Where rumen ciliate protozoa were undetectable, a reduction or inhibition value of 100% was recorded. In general, most compounds expressed a strong inhibitory effect on protozoal populations.

mice = experiment: Mouse safety assessment; assay type: in vivo; conditions: oral gavage, 830, 415 and 217 mg/kg, observed for 2 days
Description: Compounds of Table 1 chosen for testing in sheep were first tested in mice for signs of toxicity. Because sheep are approximately 5 times more sensitive than mice to compounds dosed orally, the dose rates applied to mice were 5 times greater than the target dose rate of 500 ppm. in rumen liquor (83 mg/kg live weight) used for sheep. Each compound was screened at three different dose levels, high (830 mg/kg), medium (415 mg/kg) and low (217 mg/kg).
252 mg of compound was used for dilution into a high medium and low dose rate. 252 mg of compound was mixed with 3 ml of G1284 solution (4% w/v ethoxylated castor oil and 0.05% w/v simethicone), to form the high dose composition. The medium dose composition was formed by diluting 1.5 ml of the high dose with 1.5 ml of G1284 solution. The low dose composition was formed by diluting 1.5 ml of the medium dose with 1.5 ml of G1284 solution. Before the high dose could be diluted it was first manually ball milled in an effort to produce a fine suspension of the compound.
All mice were weighed before dosing to calculate the appropriate dose rate. The calculation for dose rate was: [formula]
Each mouse was dosed using the Gavage method. With this method the mouse is dosed orally by way of an angled hypodermic needle (18 g) with a smooth spherical end. It is gently placed down the esophagus. All care must be taken not to force the needle and injure the esophagus or dose into the lungs.
Observations were made at 10, 30, 60 and 120 minutes after dosing, then every 1 or 2 hours for the first 6 hours.
Mice were usually observed for 2 days.
Typically, few compounds fell within the poor classification. The majority of compounds tested were either in the fair or good classification.

rumen ciliate protozoa [4] = experiment: In vitro activity of defaunation compounds against rumen ciliate protozoa; assay type: cell-based; conditions: 39° C., anaerobic, 3 hours, tested at 50, 150, 250 and 500 ppm
Description: Compounds of Table 1 were tested for their toxicity against rumen ciliate protozoa by firstly isolating protozoa from rumen liquor collected from faunated animals. The rumen liquor was then centrifuged at 500 g for five minutes and the supernatant discarded. The protozoal-rich sediment was then reconstituted in McDougal's artificial saliva. Residual bacteria were suppressed by using a combination of two antibiotics at low concentration. Nitrogen and energy substrate was optimized for the protozoal preparation. At all times the protozoal preparation was maintained at 39° C. and kept anaerobic.
Sixty milligrams of each the compounds of Table 1 were dissolved in 1.2 ml of dimethyl sulphoxide and dispersed in triplicate to achieve a final concentration of 50, 150, 250 and 500 ppm. Ten milliliters of protozoal preparation was then added to each tube. After every second compound, control tubes were included which contained everything except for compound. The tubes, to which a 5 ml glass syringe was attached, were then incubated for 3 hours in a water bath at 39° C. The production of gas causes the syringe plunger to be displaced.
At the end of the incubation period, the volume of gas produced was recorded and the viability of the protozoa assessed visually using a microscope. The toxicity of the compounds to protozoa was assessed from both the reduction in gas produced relative to the control and by direct observation of the protozoa for movement of cilia.

rumen bacteria [5] = experiment: Bacterial viability in sheep after administering defaunation compounds; assay type: in vivo; conditions: gas production one week after dosing vs pre-dosing
Description: In order to establish what effect the compounds had on the viability of rumen bacteria, a sample of rumen liquor was collected prior to dosing of the compound. The sample was withdrawn under vacuum using a pre-warmed tube inserted into the rumen through a rumen cannula. The sample was collected in a pre-warmed (39° C.) flask, gassed with carbon dioxide and covered. Two-pre-warmed 30 ml centrifuge tubes were then filled with well mixed rumen liquor and centrifuged at 2000 rpm for 5 minutes. Half the volume of each tube was then poured into another pre-warmed tube without disturbing the sediment. Three lots of 10 ml of this rumen liquor were then pipetted into 15 ml tubes which contained 10 μL of urea solution (40% w/v and 300 μL of glucose solution (50% w/v). The urea and glucose acted as substrate for the bacteria. The tubes were then gassed with carbon dioxide, stoppered and placed in a water bath at 39° C. After 10 minutes a 5 ml glass syringe was secured into the stoppers (through which a hypodermic needle had been inserted) and the gas collected for five hours and recorded.
This bacterial viability measure was then repeated one week after dosing with each of the compounds referred to in Table 1. Defaunation compositions were prepared according to the method of Example 1. The amount of gas produced was then compared with the pre-dosing level. The criterion for classifying post-dosing bacterial viability is shown below:
Poor--reduction in post-dosing gas production relative to pre-dosing levels.
OK--post-dosing gas production the same as pre-dosing levels.
Good--increase in post-dosing gas production relative to pre-dosing levels.

Row | SMILES | Feed Intake [1] | Bact. Gas Inhibition at the conc. required to kill protozoa (rumen bacteria [2]) | Protozoal Reduction (rumen ciliate protozoa [3]) [%] | Mouse Safety Assessment (mice) | Conc Required to Kill all Protozoa (rumen ciliate protozoa [4]) [ppm] | Bacterial Viability (rumen bacteria [5])
1 | Clc1nc(Cl)nc(Nc2ccc(I)cc2)n1 [Compound 11] | Good | 71 | 84 | Fair (>2 mice sick) | 250 | Okay
2 | CSc1cccc(Nc2nc(Cl)nc(Cl)n2)c1 [Compound 15] | Good | 52 | 100 | Fair (>2 mice sick) | 150 | Good
3 | COc1ccc(Nc2nc(Cl)nc(Cl)n2)cc1OC [Compound 17] | Fair | 43 | 98 | Good | 250 | Okay
4 | CSc1ccc(Nc2nc(Cl)nc(Cl)n2)cc1 [Compound 18] | Okay (transient drop, less than 50% at day 2) | 53 | 100 | Fair (>2 mice sick) | 150 | Okay
5 | N#Cc1cccc(Nc2nc(Cl)nc(Cl)n2)c1 [Compound 19] | Good | 50 | 100 | Fair (>2 mice sick) | 250 | Poor
6 | CC(C)(C)c1ccc(Nc2nc(Cl)nc(Cl)n2)cc1 [Compound 20] | Good | 55 | 100 | Fair (>2 mice sick) | 150 | Okay
7 | CC(C)c1ccc(Nc2nc(Cl)nc(Cl)n2)cc1 [Compound 21] | Good | 55 | 100 | Fair (>2 mice sick) | 150 | Good
8 | Clc1nc(Cl)nc(Nc2cccc(I)c2)n1 [Compound 22] | Good | 75 | 100 | Fair (>2 mice sick) | 150 | Okay
9 | COc1cccc(Nc2nc(Cl)nc(Cl)n2)c1 [Compound 23] | Good | 50 | 79 | Fair (>2 mice sick) | 150 | Good
10 | Clc1nc(Cl)nc(Nc2cc(Cl)c(Cl)c(Cl)c2)n1 [Compound 24] | Good | 67 | 100 | Good | 150 | Okay
11 | CN(c1ccc(Cl)c(Cl)c1)c1nc(Cl)nc(Cl)n1 [Compound 29] | Good | 41 | 98 | Fair (>2 mice sick) | 150 | Good
